# Source: US4636491A, “Renin inhibitory peptides having improved solubility” (Merck & Co., Inc., priority 1984, dated 1987)
# pIC50, pKi: −log10 of the molar value. Read-outs that look alike come from different tables or passages of the source. *1 amine or outer side, *2 acyl side, *3 side chain or, on linkers, in order; H or OH if unused. Where a SMILES comes first, the peptide text is derived from it. [ ]: non-standard residue; d: D form. The star is where a group is joined. ξ: configuration not given here. NH(3-guanidinomethylbenzyl) = NC(N)=NCc1cccc(CN*)c1; NH(3-OCH2COOH-benzyl) = O=C(O)COc1cccc(CN*)c1; X1 = NCc1cccc(CC(N[*:1])C(=O)[*:2])c1; Sta = CC(C)C[C@H](N)[C@@H](O)CC(=O)O; NHCH2CH2SO3H = O=S(=O)(O)CCN*; X4 = NC(Cc1cccc(CN*)c1)C(=O)O; X3 = [O-][n+]1ccc(CN*)cc1; ξPhg = NC(C(=O)O)c1ccccc1; Boc = CC(C)(C)OC(=O)*; X2 = NC(CN*)c1ccccn1
# What was measured:
# Partition coefficient = format: physicochemical
# Protocol: (§1) Following the standard solid phase methodology described above in Example 1, additional inhibitory peptides of the present invention were prepared. The peptides prepared are set out in the following table. Satisfactory amino acid analyses were obtained by Spinco method for each listed peptide. Also included in the table is solubility data of three types from which the improved solubility characteristics of the peptides of the present invention may be judged.
# [1] = Solubility of the peptides in pH 7.4 buffer and in H2O; format: physicochemical
# Protocol: as §1
# human kidney renin = target: T1, human kidney renin (Homo sapiens, UniProt P00797); test: Inhibition of purified human kidney renin; format: biochemical; details: dissociation constant of the inhibited enzyme-inhibitor complex
# T1 construct: human kidney renin purified as described in Bangham; from tissue; host or cells: human kidney
# T1 sequence (P00797 67-406): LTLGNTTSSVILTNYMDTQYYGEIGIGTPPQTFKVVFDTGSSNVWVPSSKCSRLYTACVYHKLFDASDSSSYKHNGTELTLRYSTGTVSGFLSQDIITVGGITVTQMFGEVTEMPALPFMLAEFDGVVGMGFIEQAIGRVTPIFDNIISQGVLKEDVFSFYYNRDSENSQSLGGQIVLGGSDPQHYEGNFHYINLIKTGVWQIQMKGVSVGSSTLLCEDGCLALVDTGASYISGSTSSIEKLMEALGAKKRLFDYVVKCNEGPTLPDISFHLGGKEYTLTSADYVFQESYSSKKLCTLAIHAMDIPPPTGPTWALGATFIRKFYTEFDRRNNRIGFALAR
# Protocol: (§2) Assays were carried out in order to determine the inhibitory potency of the peptides of the present invention. […] Another assay measured the inhibition of human kidney renin purified as described in Bangham, D. R., Robertson, I., Robinson, J. I. S., Robinson, C. J., and Tree, M., Clinical Science and Molecular Medicine, 48 (Supp. 2): 136s-159s (1975), and further purified by affinity chromatography on pepstatin-aminohexyl-Sepharase described in Poe, M., Wu., J. K., Florance, J. R., Radkey, J. A., Bennet, C. D., and Hoogsteen, K., J. Biol. Chem. 258:2209-2216 (1983). The assay was also in accordance with Poe et al. cited above. Further assays measured human plasma renin and dog plasma renin in accordance with procedures described in Biger et al, Nature, 303:81-84 (1983).
# The results expressed as KI values refer to the dissociation constant of the inhibited enzyme-inhibitor complex. This KI value was obtained as described above.
# dog plasma renin = target: T2, dog plasma renin (Canis lupus familiaris, UniProt Q6DYE7); test: Inhibition of dog plasma renin; format: biochemical; details: for Dog Plasma, % inhibition at 1000: at 1000 .eta.M
# T2 construct: Further assays measured human plasma renin and dog plasma renin; from tissue; host or cells: dog plasma
# T2 sequence (Q6DYE7 66-403): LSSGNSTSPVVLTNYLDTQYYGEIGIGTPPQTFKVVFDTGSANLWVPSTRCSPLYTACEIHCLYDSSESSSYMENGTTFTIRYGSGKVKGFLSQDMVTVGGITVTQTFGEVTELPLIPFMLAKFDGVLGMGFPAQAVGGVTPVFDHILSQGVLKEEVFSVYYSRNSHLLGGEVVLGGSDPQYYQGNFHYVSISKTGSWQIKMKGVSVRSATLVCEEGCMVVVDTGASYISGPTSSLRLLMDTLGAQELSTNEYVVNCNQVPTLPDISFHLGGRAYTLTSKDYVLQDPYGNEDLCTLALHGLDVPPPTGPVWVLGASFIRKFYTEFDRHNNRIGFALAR
# Protocol: as §2
# human plasma renin = target: T3, human plasma renin (Homo sapiens, UniProt P00797); test: Inhibition of human plasma renin; format: biochemical
# T3 construct: Further assays measured human plasma renin and dog plasma renin; from tissue; host or cells: human plasma
# T3 sequence (P00797 67-406): T1 sequence (P00797 67-406)
# Protocol: as §2
# nephrectomized rats = details: after the injection of hog renin into nephrectomized rats; cited from earlier work
# [2] = pH 7.4, aqueous buffer, pH 7.4 Buffer mg/ml (solubility)
# [3] = water, H2O, read-out: H2O mg/ml (solubility)
Compound,Partition Coefficient (Partition coefficient),"solubility [1, 2] [mg/mL]","solubility ([1]; water, H2O mg/ml (solubility)) [mg/mL]",pKi (human kidney renin),also measured
CC(C)C[C@H](NC(=O)C[C@H](O)[C@H](CC(C)C)NC(=O)[C@H](Cc1c[nH]cn1)NC(=O)[C@H](Cc1ccccc1)NC(=O)OC(C)(C)C)C(=O)NCC(N)c1ccccn1 (stereo partly drawn) [Example 2] (Boc-FH[Sta]L-X2),infinity,0.32,0.71,,
CC(C)C[C@H](NC(=O)C[C@H](O)[C@H](CC(C)C)NC(=O)[C@H](Cc1c[nH]cn1)NC(=O)[C@H](Cc1ccccc1)NC(=O)OC(C)(C)C)C(=O)NC(Cc1cccc(CN)c1)C(=O)O (stereo partly shown) [Example 4] (Boc-FH[Sta]L[X1]-OH),68.2,1.3,0.33,8.31,
"CC(C)C[C@H](NC(=O)C[C@H](O)[C@H](CC(C)C)NC(=O)[C@H](Cc1c[nH]cn1)NC(=O)[C@H](Cc1ccccc1)NC(=O)OC(C)(C)C)C(=O)NCCC(N)C(=O)O (single isomer, unassigned) [Example 5 (Isomer A)]",2.1,,,8.62,"solubility [1, 3]: 1.72 mg/mL; Dog Plasma, % inhibition at 1000 (dog plasma renin; listed as 5 A): 15%; Human Plasma, % inhibition at 1000 (human plasma renin; at 1000 .eta.M): 25%"
"CC(C)C[C@H](NC(=O)C[C@H](O)[C@H](CC(C)C)NC(=O)[C@H](Cc1c[nH]cn1)NC(=O)[C@H](Cc1ccccc1)NC(=O)OC(C)(C)C)C(=O)NCCC(N)C(=O)O (single isomer, unassigned) [Example 5 (Isomer B)]",10.7,,,5.66,"Dog Plasma, % inhibition at 1000 (dog plasma renin; listed as 5 B): 22%; Human Plasma, % inhibition at (concentration not given) (human plasma renin): 0%"
pepstatin,,,,,blood pressure in vivo (nephrectomized rats): reduce blood pressure
CC(C)C[C@H](NC(=O)C[C@H](O)[C@H](CC(C)C)NC(=O)[C@H](Cc1c[nH]cn1)NC(=O)[C@H](Cc1ccccc1)NC(=O)OC(C)(C)C)C(=O)NCc1cccc(CN=C(N)N)c1 [Example 3] (Boc-FH[Sta]L-{NH(3-guanidinomethylbenzyl)}),10.6,0.77,2.46,,
CC(C)C[C@H](NC(=O)C[C@H](O)[C@H](CC(C)C)NC(=O)[C@H](Cc1c[nH]cn1)NC(=O)[C@H](Cc1ccccc1)NC(=O)OC(C)(C)C)C(=O)NCc1cccc(CC(N)C(=O)O)c1 (stereo partly drawn) [Example 6] (Boc-FH[Sta]L-X4),,,,7.92,"pIC50 (dog plasma renin; read-out: Dog Plasma I50): 6.92; Human Plasma, % inhibition at (concentration not given) (human plasma renin): 15%"

# The next lines start with results.
Partition Coefficient (Partition coefficient),"solubility [1, 2] [mg/mL]","solubility ([1]; water, H2O mg/ml (solubility)) [mg/mL]",pKi (human kidney renin),Compound,also measured
16.5,,,6.00,CC(C)C[C@H](NC(=O)C[C@H](O)[C@H](CC(C)C)NC(=O)[C@H](Cc1c[nH]cn1)NC(=O)[C@H](Cc1ccccc1)NC(=O)OC(C)(C)C)C(=O)NC(C(=O)O)c1ccccc1 (stereo partly shown) [Example 8] (Boc-FH[Sta]L[ξPhg]-OH),"solubility ([1]; pH 7.4 buffer, pH 7.4, aqueous buffer, pH 7.4 buffer, read-out: pH 7.4 Buffer mg/ml (solubility)): 1.8 mg/mL; solubility [1, 3]: 0.6 mg/mL; Dog Plasma, % inhibition at 1000 (dog plasma renin): 45%; Human Plasma, % inhibition at (concentration not given) (human plasma renin): 44%"
,3.3,5.1,,CC(C)C[C@H](NC(=O)C[C@H](O)[C@H](CC(C)C)NC(=O)[C@H](Cc1c[nH]cn1)NC(=O)[C@H](Cc1ccccc1)NC(=O)OC(C)(C)C)C(=O)NCc1cc[n+]([O-])cc1 [Example 7] (Boc-FH[Sta]L-X3),
infinity,1.5,0.23,,CC(C)C[C@H](NC(=O)C[C@H](O)[C@H](CC(C)C)NC(=O)[C@H](Cc1c[nH]cn1)NC(=O)[C@H](Cc1ccccc1)NC(=O)OC(C)(C)C)C(=O)NCc1cccc(OCC(=O)O)c1 [Example 9] (Boc-FH[Sta]L-{NH(3-OCH2COOH-benzyl)}),
4.34,> 9,> 9,,CC(C)C[C@H](NC(=O)C[C@H](O)[C@H](CC(C)C)NC(=O)[C@H](Cc1c[nH]cn1)NC(=O)[C@H](Cc1ccccc1)NC(=O)OC(C)(C)C)C(=O)NCCS(=O)(=O)O [Example 10] (Boc-FH[Sta]L-NHCH2CH2SO3H),
